Legend:
Test in all cases: selective drug sensitivity score (sDSS, relative to normal bone marrow) (sDSS (score)); higher = more potent and effective on the cell line relative to normal bone marrow cells
Details in all cases: 72 h
697 = test system: 697
CCRF-CEM = test system: CCRF-CEM
CCRF-HSB2 = test system: CCRF-HSB2
COG-LL-332h = test system: COG-LL-332h
COG-LL-402h = test system: COG-LL-402h
HAL-01 = test system: HAL-01
KARPAS-45 = test system: KARPAS-45
KASUMI-2 = test system: KASUMI-2
KOPN-8 = test system: KOPN-8
LC4-1 = test system: LC4-1
MHH-CALL-3 = test system: MHH-CALL-3
MHH-CALL-4 = test system: MHH-CALL-4
MOLT-16 = test system: MOLT-16
NALL-1 = test system: NALL-1
NALM-6 = test system: NALM-6
PF-382 = test system: PF-382
RPMI-8402 = test system: RPMI-8402
SEM cells = test system: SEM cells
SUP-B15 = test system: SUP-B15
TMD5 = test system: TMD5
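Also: ALL cell lines in 384-well plates, five doses spanning 10,000-fold, each plate scaled between vehicle and 100 µmol/L benzalkonium chloride controls, sDSS an adapted area-under-curve metric.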

Row | Compound | selective drug sensitivity score 697 | selective drug sensitivity score (CCRF-CEM) | selective drug sensitivity score (CCRF-HSB2) | selective drug sensitivity score (COG-LL-332h) | selective drug sensitivity score (COG-LL-402h) | selective drug sensitivity score (HAL-01) | selective drug sensitivity score (KARPAS-45) | selective drug sensitivity score (KASUMI-2) | selective drug sensitivity score (KOPN-8) | selective drug sensitivity score (LC4-1) | selective drug sensitivity score (MHH-CALL-3) | selective drug sensitivity score (MHH-CALL-4) | selective drug sensitivity score (MOLT-16) | selective drug sensitivity score (NALL-1) | selective drug sensitivity score (NALM-6) | selective drug sensitivity score (PF-382) | selective drug sensitivity score (RPMI-8402) | selective drug sensitivity score (SEM cells) | selective drug sensitivity score (SUP-B15) | selective drug sensitivity score (TMD5)
1 | CCN(CC)CCCC(C)Nc1ccnc2cc(Cl)ccc12 (stereo not given) [Chloroquine] (top concentration 100000 nM) | -2.14 | -2.94 | -2.34 | -0.64 | -3.94 | 0.36 | 1.26 | -8.14 | -1.14 | -3.74 | -6.04 | -1.44 | -3.14 | -8.84 | -2.74 | -2.34 | -1.74 | -0.74 | -4.14 | -4.54
2 | CCN(CC)CCN(Cc1ccc(-c2ccc(C(F)(F)F)cc2)cc1)C(=O)Cn1c(SCc2ccc(F)cc2)nc(=O)c2c1CCC2 [Darapladib] (top concentration 1000 nM) | -1.42 | -1.42 | -0.52 | -0.92 | -1.42 | 0.58 | -1.32 | 0.98 | 7.18 | -1.42 | -1.42 | 2.68 | 3.28 | 6.18 | -1.42 | -1.22 | -1.32 | -1.42 | -1.42 | 6.98
3 | CC[C@]12C=CCN3CC[C@@]4(c5cc([C@@]6(C(=O)OC)C[C@@H]7C[C@@H](C(C)(F)F)CN(Cc8c6[nH]c6ccccc86)C7)c(OC)cc5N(C)[C@H]4[C@@](O)(C(=O)OC)[C@@H]1OC(C)=O)[C@@H]32 [Vinflunine] (top concentration 1000 nM) | 4.68 | 3.98 | 4.48 | 3.78 | 2.78 | 1.38 | 4.48 | 5.68 | 7.08 | 4.48 | -0.12 | 0.58 | 3.98 | 2.98 | 5.18 | 2.68 | 4.78 | 6.28 | 3.48 | 0.28
4 | CC(C)C(=O)Nc1ccc([N+](=O)[O-])c(C(F)(F)F)c1 [Flutamide] (top concentration 10000 nM) | 1.94 | -0.16 | -0.46 | -0.56 | -0.56 | 3.94 | 0.74 | 0.34 | 4.24 | -0.46 | -0.56 | 1.24 | 0.34 | 8.04 | -0.46 | 0.14 | 0.74 | 2.44 | -0.56 | 6.64
5 | O=C(O)CNC(=O)c1c(O)c2ccccc2n(Cc2ccccc2)c1=O [IOX-2] (top concentration 50000 nM) | 2.28 | -0.82 | -0.82 | -0.62 | -0.82 | -0.82 | -0.82 | 3.38 | 2.48 | -0.82 | 0.88 | -0.82 | -0.82 | -0.82 | -0.32 | -0.82 | -0.82 | -0.82 | -0.82 | -0.82
6 | Cn1nnc2c(C(N)=O)ncn2c1=O [Temozolomide] (top concentration 100000 nM) | 3.76 | 7.16 | 2.06 | -0.04 | -0.04 | -0.04 | 5.76 | -0.04 | -0.04 | -0.04 | 4.76 | -0.04 | 5.16 | -0.04 | 2.26 | 3.16 | 1.46 | 6.46 | -0.04 | -0.04
7 | Cc1cc(-c2ncc(CC(=O)Nc3ccc(-c4cnccn4)cn3)cc2C)ccn1 [NVP-LGK974] (top concentration 10000 nM) | 5.6 | -0.5 | 0.5 | 0.5 | -0.1 | -0.8 | 4.6 | 1 | 2.6 | 1.2 | 2 | 3.5 | 4.9 | 1.5 | 3.7 | 2.7 | 4.9 | 2.2 | 3.9 | 3.4
8 | COCCOc1cnc2ccn([C@H](C)c3nnc4c(F)cc(-c5cnn(C)c5)cn34)c(=O)c2c1 [AMG-337] (top concentration 10000 nM) | -0.06 | -0.06 | -0.06 | -0.06 | -0.06 | 5.24 | -0.06 | 2.14 | 1.54 | -0.06 | 4.94 | -0.06 | -0.06 | 2.14 | -0.06 | -0.06 | -0.06 | -0.06 | -0.06 | -0.06
9 | C=C1C[C@@H]2CC[C@@]34C[C@H]5O[C@H]6[C@@H](O3)[C@H]3O[C@H](CC[C@@H]3O[C@H]6[C@H]5O4)CC(=O)C[C@@H]3[C@@H](OC)[C@@H](C[C@H](O)CN)O[C@H]3C[C@H]3O[C@@H](CC[C@@H]1O2)C[C@@H](C)C3=C [Eribulin] (top concentration 1000 nM) | 19.5 | 19.9 | 22.8 | 20.6 | 17.3 | 4.6 | 21.7 | 15.5 | 27 | 24 | 13.1 | 5.6 | 28.6 | 15.8 | 16 | 15.1 | 22.1 | 22.1 | 25.7 | 12.5

Source: the supplement of paper PMC8967900
